Laboratory results taken from patent publication US5622989A, “Amino-benzofuryl-and thienyl-derivatives” (Bayer Aktiengesellschaft, priority 1994, dated 1997).
pIC50: −log10 of the molar value.

System: human PMN
Assay: Inhibition of FMLP-stimulated production of superoxide radical anions
Format: cell-based
Conditions: Neutrophil, neutrophils stimulated with 4×10^-8 M FMLP; for inhibition at 10 µM: 10 μM compound
Experimental: 1. Preparation of human PMN
Blood was taken from healthy subjects by venous puncture and neutrophils were purified by dextran sedimentation and resuspended in the buffered medium.
2. Inhibition of FMLP-stimulated production of superoxide racidal anions.
Neutrophils (2.5×10^5 ml^-1) were mixed with cytochrome C (1.2 mg/ml) in the wells of a microtitre plate. Compounds according to the invention were added in dimethyl sulphoxide (DMSO). Compound concentration ranged from 2.5 nM to 10 μM, the DMSO concentration was 0.1% v/v in all wells. After addition of cytochalasin b (5 μg×ml^-1) the plate was incubated for 5 min at 37° C. Neutrophils were then stimulated by addition of 4×10^-8 M FMLP and superoxide generation measured as superoxide dismutase inhibitable reduction of cytochrome C by monitoring the OD550 in a Thermomax microtitre plate spectrophotometer. Initial rates were calculated using a Softmax kinetic calculation programme. Blank wells contained 200 units of superoxide dismutase.
The inhibition of superoxide production was calculated as follows: [formula] Rx=Rate of the well containing the compound according to the invention. Ro=Rate in the control well.
Rb=Rate in the superoxide dismutase containing blank well.

COc1cccc(C(=O)c2oc3cc(NC(C)=O)ccc3c2CCC(=O)O)c1 [Example 24]
inhibition at 10 µM: 68%
pIC50: 6.22

CSc1ccc(C(=O)c2oc3cc(NC(C)=O)ccc3c2CCC(=O)O)cc1 [Example 21]
inhibition at 10 µM: 90%
pIC50: 6.38
